{"source": "paper PMC12439166", "about": "“Dietary flavonoids form supramolecular assemblies, alter biochemistry, and enhance cell resilience” (Frontiers in Nutrition, 2025)", "test_system": "human fibroblasts", "assay": "TMT proteomics of fibroblasts with and without UV exposure, differential expression and pathway analysis", "assay_type": "cell-based", "settings": "result in words", "description": "Human fibroblasts were obtained from Cell Applications Inc (Cat. # 106-05a) and were maintained in Dulbecco’s Modified Eagle medium (DMEM, Corning, Cat. #10-013-CV) with 10% fetal bovine serum (Gibco, Cat. #10082147) and 1% penicillin/streptomycin (Gibco, Cat. # 15070-063) in a humidified incubator with 5% CO2 at 37 °C. For ultraviolet radiation, fibroblasts were seeded in a 96-well plate at a density of 25,000 cells/well and maintained at 37 °C for 24 h. Cells were washed once with Hanks’ balanced salt solution (HBSS, Gibco, Cat. #14025-092), then treated for 1 h with different concentrations of compounds prepared in HBSS. Vitamin C (Sigma, Cat. # A5960) served as a positive control. Treated cells were exposed to ultraviolet light (UVP cross-linker, CL1000, 254 nm UV, 8 watts) at a total dose of 20 mJ/cm^2. Following irradiation, the HBSS was replaced with culture medium containing the same concentration of compounds as before irradiation, and cells were again maintained at 37 °C. Cell viability was measured at 24 h post-irradiation using CellTiter-Glo according to the manufacturer’s instructions (Promega, Cat.# G7571). Results were expressed as relative cell viability (%) with respect to control cells (cells without ultraviolet irradiation or compound treatment).\nFrozen cell pellets were dissolved for 15 min in 6M Guanidinium Chloride at room temperature to lyse cells. Then, each solution was run on a 10 kDa filter (Pall, TX) and washed with 50 μL of TEAB buffer at 3000 rpm. FASP Digestion ([56]): A stock solution of Trypsin Platinum, Mass Spec Grade (Promega) at 100 μg/mL in 50 mM TEAB, and a specific volume of stock trypsin was added to each sample vial for each set of […] using a 1:50 ratio (Trypsin:Protein). Samples were incubated for 2 h at 50 °C and shaken/mixed at 350 rpm on an Eppendorf ThermoMixer C. TMT Labeling: Samples, now peptides, were labeled using 4 μL of TMTpro Mass Tag Labels (ThermoScientific). After labeling, samples were then shaken/mixed for 45 min to ensure labels were covalently bonded to peptides. The labeling reaction was quenched for 10 min using 1 μL of 5% hydroxyalamine. After quenching, samples were pooled into one 2 mL Eppendorf tube and then dried down using an Eppendorf Vacufuge Plus. Desalting Samples: Dried samples were resuspended in 300 μL of 0.1% TFA in ultrapure HPLC-grade water and vortexed to ensure full solubility. Samples were then desalted using Pierce^TM Peptide Desalting Spin Columns (ThermoScientific). Final eluates (desalted samples) contained 600 μL of 50% HPLC-grade Acetonitrile and 50% ultrapure HPLC-grade water. Desalted samples were then transferred to HPLC vials and were again dried down. […]", "data": [{"smiles": "O=c1c(O[C@@H]2O[C@H](CO)[C@@H](O)[C@H](O)[C@H]2O)c(-c2ccc(O)c(O)c2)oc2cc(O)cc(O)c12", "note": "[isoquercitrin]", "values": [{"measurement": "proteins/pathways up- and downregulated, exposed to UV radiation", "setting": "UV-irradiated cells", "value": "upregulation of collagen and cell cycle/DNA repair proteins while downregulating proteins associated with autophagy, necroptosis, ferroptosis, lysosomal degradation, and other pathways"}, {"measurement": "proteins/pathways up- and downregulated, without UV treatment", "setting": "control conditions without UV", "value": "upregulated proteins associated with DNA repair pathways and downregulated inflammatory pathways"}]}]}
